From PubChem BioAssay AID330 (DTP/NCI, 2004)
“And” between values parts separate entries of the source, which are not always exact repeats. Equal values may be shown once. Inconclusive results and toxic doses are left out.

Tested on: P388 leukemia ip, CD2F1 mice, survival T/C
Assay: NCI In Vivo Anticancer Drug Screen. Data for tumor model P388 Leukemia (intraperitoneal) in CD2F1 (CDF1) mice
Conditions: endpoint: median survival time, higher = longer survival
In short: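 Mice carrying the transplanted tumor received test compound or vehicle. Survival was recorded in each group, and the value is the treated-group measurement divided by that of the vehicle-treated control group.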

[1] = dose: 50.0 mg/kg/injection, schedule: Q01DX005 (ip), vehicle: saline with Tween-80
[2] = dose: 100.0 mg/kg/injection, schedule: Q01DX005 (ip), vehicle: saline with Tween-80
[3] = dose: 200.0 mg/kg/injection, schedule: Q01DX005 (ip), vehicle: saline with Tween-80
[4] = dose: 6.25 mg/kg/injection, schedule: Q01DX009 (ip), vehicle: water
[5] = dose: 12.5 mg/kg/injection, schedule: Q01DX009 (ip), vehicle: water
[6] = dose: 60.0 mg/kg/injection, schedule: Q01DX005 (ip), vehicle: saline with Tween-80
[7] = dose: 120.0 mg/kg/injection, schedule: Q01DX005 (ip), vehicle: saline with Tween-80
[8] = dose: 240.0 mg/kg/injection, schedule: Q01DX005 (ip), vehicle: saline with Tween-80
[9] = dose: 50.0 mg/kg/injection, schedule: Q01DX005 (ip), vehicle: Klucel (hydroxypropylcellulose) (HPC)
[10] = dose: 100.0 mg/kg/injection, schedule: Q01DX005 (ip), vehicle: Klucel (hydroxypropylcellulose) (HPC)
[11] = dose: 200.0 mg/kg/injection, schedule: Q01DX005 (ip), vehicle: Klucel (hydroxypropylcellulose) (HPC)
[12] = dose: 60.0 mg/kg/injection, schedule: Q01DX005 (ip), vehicle: Klucel (hydroxypropylcellulose) (HPC)
[13] = dose: 120.0 mg/kg/injection, schedule: Q01DX005 (ip), vehicle: Klucel (hydroxypropylcellulose) (HPC)
[14] = dose: 240.0 mg/kg/injection, schedule: Q01DX005 (ip), vehicle: Klucel (hydroxypropylcellulose) (HPC)

CCCCCCCCCCCC(=O)NCCOCCOCCOCCOCCOCCOCCOCCOCCO (tested in a mixture with another compound)
T/C [1]: 98 % of control
T/C [2]: 102 % of control
T/C [3]: 96 % of control

O=C1Cc2cc3c(cc2C=C2CCCN12)OCO3
T/C [4]: 100 % of control
T/C [5]: 100 % of control
T/C (dose: 25.0 mg/kg/injection, schedule: Q01DX009 (ip), vehicle: water): 103 % of control
T/C (dose: 50.0 mg/kg/injection, schedule: Q01DX009 (ip), vehicle: water): 106 % of control
T/C (dose: 100.0 mg/kg/injection, schedule: Q01DX009 (ip), vehicle: water): 100 % of control

ClC(Cl)(Cl)C1OCCOCCO1
T/C (dose: 100.0 mg/kg/injection, schedule: Q01DX009 (ip), vehicle: saline with Tween-80): 109 % of control
T/C (dose: 200.0 mg/kg/injection, schedule: Q01DX009 (ip), vehicle: saline with Tween-80): 100 % of control
T/C (dose: 400.0 mg/kg/injection, schedule: Q01DX009 (ip), vehicle: saline with Tween-80): 116 % of control

O=C(c1ccccc1)C1COc2ccccc2C1O (centres undefined)
T/C [6]: 109 % of control
T/C [7]: 94 % of control
T/C [8]: 94 % of control

COC(=O)C1C[S][Sn]2([NH]1)[NH]C(C(=O)OC)C[S]2 (centres undefined)
T/C [9]: 108 % of control
T/C [10]: 106 % of control
T/C [11]: 101 % of control

C[n+]1c2ccccc2c2c3c(cccc31)C(=O)c1cc(Cl)ccc1-2 (tested in a mixture with another compound)
T/C (dose: 3.12 mg/kg/injection, schedule: Q01DX009 (ip), vehicle: water): 106 % of control
T/C [4]: 98 % of control
T/C [5]: 98 % of control

CCN(CC)CCOCCC1(C)Oc2ccc(Cl)cc2O1 (centres undefined)
T/C (dose: 50.0 mg/kg/injection, schedule: Q01DX009 (ip), vehicle: saline): 93 % of control
T/C (dose: 100.0 mg/kg/injection, schedule: Q01DX009 (ip), vehicle: saline): 93 % of control

CC(C)C(=O)CCC(C)C1CCC2(C)C3CC=C4C(CCC(O)C4(C)C)C3(C)C(=O)CC12C (centres undefined)
T/C (dose: 100.0 mg/kg/injection, schedule: Q04DX002 (ip), vehicle: saline): 100 % of control
T/C (dose: 200.0 mg/kg/injection, schedule: Q04DX002 (ip), vehicle: saline): 98 % of control
T/C (dose: 400.0 mg/kg/injection, schedule: Q04DX002 (ip), vehicle: saline): 99 % of control

Nc1ncc(S(=O)(=O)c2ccc([N+](=O)[O-])cc2)c(N)n1
T/C (dose: 75.0 mg/kg/injection, schedule: Q01DX009 (ip), vehicle: suspension in saline): 96 % of control
T/C (dose: 150.0 mg/kg/injection, schedule: Q01DX009 (ip), vehicle: suspension in saline): 98 % of control
T/C (dose: 300.0 mg/kg/injection, schedule: Q01DX009 (ip), vehicle: suspension in saline): 92 % of control

CC(C)(C)N1CC1CNC(=O)C(=O)NCC1CN1C(C)(C)C (centres undefined)
T/C (dose: 3.12 mg/kg/injection, schedule: Q01DX009 (ip), vehicle: saline with Tween-80): 165 % of control
T/C (dose: 6.25 mg/kg/injection, schedule: Q01DX009 (ip), vehicle: saline with Tween-80): 194 % of control and 203 % of control
T/C (dose: 12.5 mg/kg/injection, schedule: Q01DX009 (ip), vehicle: saline with Tween-80): 256 % of control and 277 % of control
T/C (dose: 25.0 mg/kg/injection, schedule: Q01DX009 (ip), vehicle: saline with Tween-80): 177 % of control

CC12CC(c3ccccc3N1)C1CC2(C)Nc2ccccc21
T/C [9]: 95 % of control
T/C [10]: 100 % of control
T/C [11]: 102 % of control

O=c1[nH]c2cc(Cl)ccc2nc1/C=C(\O)c1cccc([N+](=O)[O-])c1
T/C [12]: 102 % of control
T/C [13]: 97 % of control
T/C [14]: 101 % of control

C=C1CCN(c2ccc([N+](=O)[O-])cc2)C1=O
T/C (dose: 4.0 mg/kg/injection, schedule: Q01DX009 (ip), vehicle: saline + alcohol): 94 % of control
T/C (dose: 8.0 mg/kg/injection, schedule: Q01DX009 (ip), vehicle: saline + alcohol): 101 % of control
T/C (dose: 16.0 mg/kg/injection, schedule: Q01DX009 (ip), vehicle: saline + alcohol): 102 % of control
T/C (dose: 32.0 mg/kg/injection, schedule: Q01DX009 (ip), vehicle: saline + alcohol): 96 % of control
T/C (dose: 64.0 mg/kg/injection, schedule: Q01DX009 (ip), vehicle: saline + alcohol): 88 % of control

Cc1nccc2c(C)c3c(cc12)c1ccccc1n3C
T/C (dose: 5.0 mg/kg/injection, schedule: Q01DX005 (ip), vehicle: saline): 107 % of control
T/C (dose: 10.0 mg/kg/injection, schedule: Q01DX005 (ip), vehicle: saline): 107 % of control
T/C (dose: 20.0 mg/kg/injection, schedule: Q01DX005 (ip), vehicle: saline): 99 % of control

Cc1ccccc1C1N=C2Oc3ccccc3C=C2C(=O)N1 (centres undefined)
T/C (dose: 12.5 mg/kg/injection, schedule: Q01DX005 (ip), vehicle: Klucel (hydroxypropylcellulose) (HPC)): 100 % of control and 102 % of control and 98 % of control
T/C (dose: 25.0 mg/kg/injection, schedule: Q01DX005 (ip), vehicle: Klucel (hydroxypropylcellulose) (HPC)): 93 % of control

COC1=C(C2=C(OC)C(=O)c3cc4c(c(O)c3C2=O)C(=O)OC(C)C4)C(=O)c2c(cc3c(c2O)C(=O)OC(C)C3)C1=O (centres undefined)
T/C (dose: 6.25 mg/kg/injection, schedule: Q01DX009 (ip), vehicle: saline): 100 % of control
T/C (dose: 12.5 mg/kg/injection, schedule: Q01DX009 (ip), vehicle: saline): 98 % of control
T/C (dose: 25.0 mg/kg/injection, schedule: Q01DX009 (ip), vehicle: saline): 103 % of control

CCCCCC[CH2][Sn]([Cl])([CH2]C)[O][Sn]([Cl])([CH2]C)[CH2]CCCCCC (centres undefined)
T/C (dose: 12.5 mg/kg/injection, schedule: Q01DX005 (ip), vehicle: saline): 86 % of control
T/C (dose: 25.0 mg/kg/injection, schedule: Q01DX005 (ip), vehicle: saline): 86 % of control
T/C (dose: 50.0 mg/kg/injection, schedule: Q01DX005 (ip), vehicle: saline): 98 % of control and 90 % of control
T/C (dose: 100.0 mg/kg/injection, schedule: Q01DX005 (ip), vehicle: saline): 110 % of control
T/C (dose: 200.0 mg/kg/injection, schedule: Q01DX005 (ip), vehicle: saline): 98 % of control

NC(CCl)=NCCOC12CC3CC(CC(C3)C1)C2
T/C (dose: 15.0 mg/kg/injection, schedule: Q01DX005 (ip), vehicle: saline): 103 % of control
T/C (dose: 30.0 mg/kg/injection, schedule: Q01DX005 (ip), vehicle: saline): 103 % of control
T/C (dose: 60.0 mg/kg/injection, schedule: Q01DX005 (ip), vehicle: saline): 106 % of control and 98 % of control

COC(=O)C(Cc1cn(C(O)(NC(=O)OCc2ccccc2)C(F)(F)F)cn1)NC(=O)C(NC(=O)C(CC(C)C)NC(=O)C(CSC(c1ccccc1)(c1ccccc1)c1ccccc1)NC(=O)OCc1ccccc1)C(C)C (centres undefined)
T/C [12]: 91 % of control
T/C [13]: 110 % of control
T/C [14]: 96 % of control

CCOc1cc2c(cc1C(CC)c1ccc(OCc3ccccc3)cc1)OCO2 (centres undefined)
T/C [9]: 92 % of control
T/C [10]: 87 % of control

CCC(C)C1SCC(=O)N1c1nncs1 (centres undefined)
T/C [6]: 104 % of control
T/C [7]: 100 % of control
T/C [8]: 107 % of control

COC(=O)c1cc(=O)nc(NN)s1
T/C [1]: 92 % of control
T/C [2]: 90 % of control

COc1cccc2c1C(=O)c1c(O)c3c(c(O)c1C2=O)C[C@@](O)(C(C)=O)C[C@@H]3OC1CC(NC(=O)C(N)CCN)C(O)C(C)O1 (some centres undefined)
T/C (dose: 5.0 mg/kg/injection, schedule: Q04DX003 (ip), vehicle: water): 96 % of control
T/C (dose: 10.0 mg/kg/injection, schedule: Q04DX003 (ip), vehicle: water): 94 % of control
T/C (dose: 20.0 mg/kg/injection, schedule: Q04DX003 (ip), vehicle: water): 99 % of control
T/C (dose: 40.0 mg/kg/injection, schedule: Q04DX003 (ip), vehicle: water): 105 % of control
T/C (dose: 80.0 mg/kg/injection, schedule: Q04DX003 (ip), vehicle: water): 118 % of control
T/C (dose: 160.0 mg/kg/injection, schedule: Q04DX003 (ip), vehicle: distilled water + Tween-80): 106 % of control
T/C (dose: 320.0 mg/kg/injection, schedule: Q04DX003 (ip), vehicle: distilled water + Tween-80): 105 % of control

O=C1CSc2nc3ccc(Cl)cc3c(=O)n21
T/C [1]: 93 % of control
T/C [2]: 101 % of control
T/C [3]: 104 % of control
